# What was measured:
# RBE cells = experiment: Cell Viability Protocol (CellTiterGlo), RBE cells; format: cell-based; conditions: RBE or SNU-1079 cells, 72 or 120 hour, cell line and time not given
# Protocol: RBE or SNU-1079 cells were cultured in T-75 or T-175 flasks at 37° C., 5% CO2, 95% relative humidity in RPMI 1640 medium with 10% FBS and 1% Penicillin/Streptomycin (media) and detached with 0.25% trypsin/EDTA at 80-90% confluency. Cells were then seeded in 40 μL media per well in 384-well flat-bottom polystyrene microplates (Corning Cat. No. 3570) at a seeding density of 1200 cells/well and incubated for 24 hours at 37° C. with 5% CO2, 95% relative humidity. On the next day, test compounds were prepared in 10 mM DMSO stock solution and diluted to the indicated concentrations in a 384-well compound source plate. DMSO was employed as a vehicle control. Compounds (40 nL) were transferred to 384-well cell culture plate(s) using the liquid handler Echo550. Plates were incubated at 37° C. with 5% CO2 for 72 hour or 120 hour (as indicated). CellTiterGlo reagent was warmed to 37° C. and added into each well (40 μL per well). Plates were incubated at room temperature for 30 min followed by reading on the EnSpire or EnVision plate reader. Relative viability (% remaining activity) was calculated relative to DMSO control and IC50 values were obtained from dose-response data fitted to a 4-parameter curve.
# SRC = SRC (Homo sapiens, UniProt P12931); experiment: SRC Biochemical Assay Protocol (microfluidic mobility shift assay, FLPeptide4 substrate)
# Sequence of SRC (P12931 whole entry, species assumed): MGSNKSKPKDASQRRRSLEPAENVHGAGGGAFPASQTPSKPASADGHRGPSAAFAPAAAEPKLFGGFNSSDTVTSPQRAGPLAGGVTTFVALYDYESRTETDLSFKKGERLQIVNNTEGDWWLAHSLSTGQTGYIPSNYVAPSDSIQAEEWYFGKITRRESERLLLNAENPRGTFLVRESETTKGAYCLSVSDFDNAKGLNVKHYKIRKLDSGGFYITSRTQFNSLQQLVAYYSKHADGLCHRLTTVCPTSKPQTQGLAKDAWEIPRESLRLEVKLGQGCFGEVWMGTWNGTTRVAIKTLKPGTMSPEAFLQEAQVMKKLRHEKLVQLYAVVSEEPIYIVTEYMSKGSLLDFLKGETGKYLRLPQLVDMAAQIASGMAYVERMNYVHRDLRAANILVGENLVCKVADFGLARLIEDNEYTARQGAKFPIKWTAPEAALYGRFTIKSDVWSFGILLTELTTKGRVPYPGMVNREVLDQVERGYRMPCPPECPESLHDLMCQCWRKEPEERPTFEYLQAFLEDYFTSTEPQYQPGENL
# Protocol: SRC Biochemical Assay Protocol
# Src biochemical kinase activity was measured using a surrogate fluorescent peptide substrate [FLPeptide4; 5-FAM-EGIYGVLFKKK-CONH2 (PerkinElmer Cat. No. 760348)] with a microfluidic mobility shift assay. Reactions were performed in 384-well flat bottom polystyrene microplates (Corning Cat. No. 3570) at a final volume of 20 μL in 50 mM HEPES pH 7.4, 1 mM EGTA, 10 mM MgCl2, 0.01% Brij-35, 2 mM DTT, 0.05% BSA, 1% DMSO. Inhibition experiments were performed with compounds of the invention varying from 0.0017-100 μM with 0.26 nM SRC, 1.5 μM FLPeptide4, and 50 μM ATP. Specifically, 15 μl 1.3× mixtures of SRC+FLPeptide4+compounds were preincubated for 30 minutes at room temperature followed by addition of 5 μL 4×ATP. Reactions were carried out for 90 minutes then quenched with 40 μl 500 mM EDTA. Phosphorylated peptide product was measured with a mobility shift assay using a LabChip® EZ Reader system (PerkinElmer Cat. No. 122919). Inhibition ratios were calculated relative to neutral controls and IC50 values were obtained from dose response data fitted to a 4-parameter logistic model.
SMILES,IC50 (RBE cells),IC50 (SRC)
"C=CC(=O)N1CCC(N2CC(C#Cc3c(-c4ccc(Oc5ccccn5)cc4)c4c(N)ncnc4n3C)C2)C[C@H]1CO (stereo partly drawn) [II-244, 1-((2S)-4-(3-((4-amino-7-methyl-5-(4-(pyridin-2-yloxy)phenyl)-7H-pyrrolo[2,3-d]pyrimidin-6-yl)ethynyl)azetidin-1-yl)-2-(hydroxymethyl)piperidin-1-yl)prop-2-en-1-one]",0.01 to 1 µM,0.01 to 1 µM
C=CC(=O)N1CCC(O)(C#Cc2c(-c3ccc(Oc4ccccc4)cc3)c3c(N)ncnc3n2C2CCOC2)CC1 (centres unmarked) [Example I-70],≤ 0.01 µM,≤ 0.01 µM
"CC(C)n1c(C#CC2CCC(C(=O)O)CC2)c(-c2ccc(Oc3ccccc3)cc2)c2c(N)ncnc21 (centres unmarked) [II-138, 4-((4-amino-7-isopropyl-5-(4-phenoxyphenyl)-7H-pyrrolo[2,3-d]pyrimidin-6-yl)ethynyl) cyclohexanecarboxylic acid]",0.01 to 1 µM,≤ 0.01 µM
"CC(C)n1c(C#CC2CCN(C(CO)c3ccccc3)CC2)c(-c2ccc(Oc3ccccc3)cc2)c2c(N)ncnc21 (centres unmarked) [II-143, 2-(4-((4-amino-7-isopropyl-5-(4-phenoxyphenyl)-7H-pyrrolo[2,3-d]pyrimidin-6-yl)ethynyl)piperidin-1-yl)-2-phenylethanol]",1 to 10 µM,0.01 to 1 µM
"CC(C)N1CCC(C#Cc2c(-c3ccc(Oc4ccccc4)cc3)c3c(N)ncnc3n2C(C)C)CC1 [II-142, 7-isopropyl-6-((1-isopropylpiperidin-4-yl)ethynyl)-5-(4-phenoxyphenyl)-7H-pyrrolo[2,3-d]pyrimidin-4-amine]",0.01 to 1 µM,≤ 0.01 µM
C=CC(=O)N1CCC(C#Cc2c(-c3ccc(Oc4ccccc4)cc3)c3c(N)ncnc3n2C(C)C)(OC)CC1 [Example I-35],0.01 to 1 µM,0.01 to 1 µM
C=CC(=O)N1CCC(C#Cc2c(-c3cnc(Oc4ccccc4)cn3)c3c(N)ncnc3n2C(C)C)CC1 [Example I-65],0.01 to 1 µM,0.01 to 1 µM
"CC(c1ccccc1)N1CCC(C#Cc2c(-c3ccc(Oc4ccccc4)cc3)c3c(N)ncnc3n2C(C)C)CC1 (centres unmarked) [II-144, 7-isopropyl-5-(4-phenoxyphenyl)-6-((1-(1-phenylethyl)piperidin-4-yl)ethynyl)-7H-pyrrolo[2,3-d]pyrimidin-4-amine]",1 to 10 µM,0.01 to 1 µM
"C=CC(=O)N1CCC(C#Cc2c(-c3ccc(Oc4ccccc4)cc3)c3c(N)ncnc3n2C2CCOCC2)CC1 [Example I-41, 1-(4-((4-amino-5-(4-phenoxyphenyl)-7-(tetrahydro-2H-pyran-4-yl)-7H-pyrrolo[2,3-d]pyrimidin-6-yl)ethynyl)piperidin-1-yl)prop-2-en-1-one]",0.01 to 1 µM,0.01 to 1 µM
"CC(=O)N1CCC(C#Cc2c(-c3ccc(Oc4ccccc4)cc3)c3c(N)ncnc3n2C(C)C)CC1 [II-139, 1-(4-((4-amino-7-isopropyl-5-(4-phenoxyphenyl)-7H-pyrrolo[2,3-d]pyrimidin-6-yl)ethynyl)piperidin-1-yl)ethanone]",0.01 to 1 µM,0.01 to 1 µM
"CC(C)n1c(C#CC2CCNCC2)c(-c2ccc(Oc3ccccc3)cc2)c2c(N)ncnc21 [II-137, 7-isopropyl-5-(4-phenoxyphenyl)-6-(piperidin-4-ylethynyl)-7H-pyrrolo[2,3-d]pyrimidin-4-amine]",1 to 10 µM,≤ 0.01 µM
"COc1cc(-c2c(C#C[C@@H]3[C@H]4CN(C(=O)/C=C/CN(C)C)C[C@@H]34)n(C)c3ncnc(N)c23)ccc1Oc1ccccn1 [II-233, (E)-1-((1R,5S,6s)-6-((4-amino-5-(3-methoxy-4-(pyridin-2-yloxy)phenyl)-7-methyl-7H-pyrrolo[2,3-d]pyrimidin-6-yl)ethynyl)-3-azabicyclo[3.1.0]hexan-3-yl)-4-(dimethylamino) but-2-en-1-one]",0.01 to 1 µM,0.01 to 1 µM
C=CC(=O)N1CCC(C#Cc2c(-c3ccc(Oc4ccccc4)cc3)c3c(N)ncnc3n2C(C)c2noc(COC)n2)CC1 (centres unmarked) [Example I-58],0.01 to 1 µM,0.01 to 1 µM
"C=CC(=O)N1CCC(N2CC(C#Cc3c(-c4ccc(Oc5cccc(C)n5)c(OC)c4)c4c(N)ncnc4n3C)C2)C[C@H]1CO (stereo partly drawn) [II-242, 1-((2S)-4-(3-((4-amino-5-(3-methoxy-4-(6-methylpyridin-2-yloxy)phenyl)-7-methyl-7H-pyrrolo[2,3-d]pyrimidin-6-yl)ethynyl)azetidin-1-yl)-2-(hydroxymethyl)piperidin-1-yl)prop-2-en-1-one]",0.01 to 1 µM,0.01 to 1 µM
"COCCN(C)C/C=C/C(=O)N1C[C@@H]2[C@@H](C#Cc3c(-c4ccc(Oc5cccc(C)n5)cc4OC)c4c(N)ncnc4n3C)[C@@H]2C1 [II-235, (E)-1-((1R,5S,6s)-6-((4-amino-5-(2-methoxy-4-((6-methylpyridin-2-yl)oxy)phenyl)-7-methyl-7H-pyrrolo[2,3-d]pyrimidin-6-yl)ethynyl)-3-azabicyclo[3.1.0]hexan-3-yl)-4-((2-methoxyethyl) (methyl)amino)but-2-en-1-one]",1 to 10 µM,0.01 to 1 µM
CN(C)C/C=C/C(=O)N1C[C@@H]2[C@@H](C#Cc3c(-c4ccc(Oc5cccc(F)c5)cc4)c4c(N)ncnc4n3C)[C@@H]2C1 [II-43],≤ 0.01 µM,0.01 to 1 µM
C=CC(=O)N1C[C@@H]2[C@@H](C#Cc3c(Br)c4c(N)ncnc4n3C(C)C)[C@@H]2C1 [III-5],1 to 10 µM,1 to 10 µM
C=CC(=O)N1CCC(C#Cc2c(-c3ccc(Oc4ccccc4)cn3)c3c(N)ncnc3n2C(C)C)CC1 [Example I-55],0.01 to 1 µM,0.01 to 1 µM

SMILES,IC50 (RBE cells),IC50 (SRC)
CN(C)C/C=C/C(=O)N1CCC(O)(C#Cc2c(-c3ccc(Oc4ccccc4)cc3)c3c(N)ncnc3n2C2CCOC2)CC1 (centres unmarked) [Example I-68],0.01 to 1 µM,0.01 to 1 µM
C=CC(=O)N1CCC(O)(C#Cc2c(-c3ccc(Oc4ccccc4F)cc3)c3c(N)ncnc3n2C)CC1 [Example I-66],0.01 to 1 µM,0.01 to 1 µM
"C=CC(=O)N1CCC(N2CC(C#Cc3c(-c4ccc(Oc5ccccn5)cc4OC)c4c(N)ncnc4n3C)C2)C[C@H]1CO (stereo partly drawn) [II-245, 1-((2S)-4-(3-((4-amino-5-(2-methoxy-4-(pyridin-2-yloxy)phenyl)-7-methyl-7H-pyrrolo[2,3-d]pyrimidin-6-yl)ethynyl)azetidin-1-yl)-2-(hydroxymethyl)piperidin-1-yl)prop-2-en-1-one]",0.01 to 1 µM,0.01 to 1 µM
"C=CC(=O)N1CCC(C#Cc2c(-c3ccc(Oc4ccccc4)cc3)c3c(N)ncnc3n2[C@H](C)CO)CC1 (single isomer, unassigned) [Example I-24]",,0.01 to 1 µM
CC#CC(=O)N1CCC(C#Cc2c(-c3ccc(Oc4ccccc4)cc3)c3c(N)ncnc3n2C(C)C)CC1 [Example I-18],,0.01 to 1 µM
C=CC(=O)N1CCC(C#Cc2c(-c3cnc(Oc4ccccc4)nc3)c3c(N)ncnc3n2C(C)C)CC1 [Example I-13],,1 to 10 µM
C=CC(=O)N1CCC(C#Cc2c(-c3ccc(Oc4cnccn4)cc3)c3c(N)ncnc3n2C(C)C)CC1 [Example I-14],,0.01 to 1 µM
C=CC(=O)N1CCC(N2CC(F)(C#Cc3c(-c4ccc(Oc5cccc(C)n5)c(OC)c4)c4c(N)ncnc4n3C)C2)C[C@H]1COC (some centres unmarked) [III-92],,0.01 to 1 µM
"CC(C(=O)O)N1CCC(C#Cc2c(-c3ccc(Oc4ccccc4)cc3)c3c(N)ncnc3n2C(C)C)CC1 (centres unmarked) [II-149, 2-(4-((4-amino-7-isopropyl-5-(4-phenoxyphenyl)-7H-pyrrolo[2,3-d]pyrimidin-6-yl)ethynyl)piperidin-1-yl)propanoic acid]",,≤ 0.01 µM
CN(C)C/C=C/C(=O)N1CCC(O)(C#Cc2c(-c3ccc(Oc4ccccc4)cc3)c3c(N)ncnc3n2C)CC1 [III-16],,0.01 to 1 µM
C=CC(=O)N1C[C@@H]2[C@@H](C#Cc3c(-c4ccc(Oc5cccc(C)n5)c(OC)c4)c4c(N)nccc4n3CCOC)[C@@H]2C1 [II-78],,1 to 10 µM
CC(CO)n1c(C#CC2CCN(C(=O)/C=C/CN(C)C)C2)c(-c2ccc(Oc3ccccc3)cc2)c2c(N)ncnc21 (centres unmarked) [III-32],,0.01 to 1 µM
C=CC(=O)N1CC[C@@H](C#Cc2c(-c3ccc(Oc4ccccc4)cc3)c3c(N)ncnc3n2C)C[C@@H]1C [III-79],,0.01 to 1 µM
CC(C)n1c(C#CC2CCN(C#N)CC2)c(-c2ccc(Oc3ccccc3)cc2)c2c(N)ncnc21 [Example I-2],,0.01 to 1 µM
C=CC(=O)N1CCC(C#Cc2c(-c3ccc(Oc4cccc(C)c4)cc3)c3c(N)ncnc3n2C(C)C)CC1 [Example I-21],,0.01 to 1 µM
C=CC(=O)N1CCC(O)(C#Cc2c(-c3ccc(Oc4ccccc4)c(F)c3)c3c(N)ncnc3n2C)CC1 [III-62],,0.01 to 1 µM
CN(C)C/C=C/C(=O)N1CCC(C#Cc2c(-c3ccc(Oc4ccccc4)cc3)c3c(N)ncnc3n2C)C1 (centres unmarked) [III-22],,0.01 to 1 µM

# From patent publication US20250154154A1 (Relay Binney Street, 2nd Floor, priority 2020, published 2025)
